Assay results published in the supplement of paper PMC10307832.

Key:
Assay in all cases: relative viability (nuclei count vs DMSO), 5 days (fraction); higher = more cells survive
[1] = compound: CCCS(=O)(=O)Nc1ccc(F)c(C(=O)c2c[nH]c3ncc(-c4ccc(Cl)cc4)cc23)c1F [Vemurafenib] + COc1cc2c(Oc3ccc(NC(=O)C4(C(=O)Nc5ccc(F)cc5)CC4)cc3F)ccnc2cc1OCCCN1CCOCC1 [Foretinib] (partner 0.25 µM)
Method in brief: (§1)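 Lung cancer cell lines, seeded in 1536-well plates, were treated the following day by pin tool with a single drug or with five library-drug doses (not always all listed) in √10 steps on top of a fixed anchor-drug dose. Cells were fixed and nuclei stained in one step after 5 days, and nuclei were counted. Relative viability is the nuclei count for treated wells divided by that for vehicle wells, reported as medians of duplicate plates.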

[2] = compound: CCCS(=O)(=O)Nc1ccc(F)c(C(=O)c2c[nH]c3ncc(-c4ccc(Cl)cc4)cc23)c1F [Vemurafenib] + CS(=O)(=O)N1CCN(Cc2cc3nc(-c4cccc5[nH]ncc45)nc(N4CCOCC4)c3s2)CC1 [Pictilisib] (partner 1 µM)
Method in brief: as §1

[3] = compound: COc1cccc2cc(-c3nc([C@H]4CC[C@H](C(=O)O)CC4)n4ncnc(N)c34)[nH]c12 [OSI-027] + CC1(C)CCC(c2ccc(Cl)cc2)=C(CN2CCN(c3ccc(C(=O)NS(=O)(=O)c4ccc(N[C@H](CCN5CCOCC5)CSc5ccccc5)c(S(=O)(=O)C(F)(F)F)c4)cc3)CC2)C1 [Navitoclax] (partner 0.5 µM)
Method in brief: as §1

[4] = compound: COc1cccc2cc(-c3nc([C@H]4CC[C@H](C(=O)O)CC4)n4ncnc(N)c34)[nH]c12 [OSI-027] + COc1cc2c(Oc3ccc(NC(=O)C4(C(=O)Nc5ccc(F)cc5)CC4)cc3F)ccnc2cc1OCCCN1CCOCC1 [Foretinib] (partner 0.25 µM)
Method in brief: as §1

Row | Cell Line | relative viability ([1]; first compound 0.03162 µM) | relative viability ([1]; first compound 0.1 µM) | relative viability ([1]; first compound 0.3162 µM) | relative viability ([1]; first compound 1 µM) | relative viability ([2]; first compound 0.03162 µM) | relative viability ([2]; first compound 0.1 µM) | relative viability ([2]; first compound 0.3162 µM) | relative viability ([2]; first compound 1 µM) | relative viability ([3]; first compound 0.01 µM) | relative viability ([3]; first compound 0.03162 µM) | relative viability ([3]; first compound 0.1 µM) | relative viability ([3]; first compound 0.3162 µM) | relative viability ([3]; first compound 1 µM) | relative viability ([4]; first compound 0.01 µM) | relative viability ([4]; first compound 0.03162 µM) | relative viability ([4]; first compound 0.1 µM) | relative viability ([4]; first compound 0.3162 µM) | relative viability ([4]; first compound 1 µM)
1 | LU99A | 0.87 | 0.867 | 0.819 | 0.723 | 0.282 | 0.311 | 0.297 | 0.286 | 0.754 | 0.651 | 0.695 | 0.427 | 0.154 | 0.75 | 0.763 | 0.685 | 0.517 | 0.302
2 | LXF-289 | 0.968 | 0.931 | 1.07 | 1.07 | 0.711 | 0.724 | 0.698 | 0.758 | 1.03 | 0.973 | 1.01 | 0.921 | 0.582 | 0.956 | 0.989 | 1.01 | 0.903 | 0.747
3 | NCI-H23 | 0.981 | 0.685 | 0.953 | 0.719 | 0.531 | 0.493 | 0.476 | 0.452 | 0.666 | 0.955 | 0.808 | 0.604 | 0.319 | 0.908 | 0.937 | 0.929 | 0.653 | 0.464
4 | NCI-H322M | 0.923 | – | – | 1.02 | 0.552 | – | 0.719 | 0.572 | 1.24 | 1.15 | 1.17 | 0.783 | 1.27 | 0.942 | 0.93 | 0.764 | 0.654 | 0.517
5 | NCI-H358 | 0.638 | 0.494 | 0.886 | 0.858 | 0.291 | – | 0.417 | 0.299 | – | – | – | – | – | 0.68 | 0.562 | 0.699 | 0.703 | 0.576
6 | NCI-H650 | 1.01 | 0.983 | – | 0.879 | 0.818 | 0.834 | 0.534 | 0.771 | – | – | – | – | – | 1.08 | 1.09 | 1.01 | 0.868 | 0.514
7 | NCI-H661 | 1.06 | 0.956 | 1.08 | 0.965 | 0.347 | 0.351 | 0.292 | 0.433 | – | – | – | – | – | 0.984 | 0.893 | 1.03 | 0.975 | 0.599
8 | NCI-H1563 | 0.859 | 0.976 | 0.93 | 0.935 | 0.666 | 0.621 | 0.584 | 0.647 | – | – | – | – | – | 0.937 | 0.857 | 0.909 | 0.839 | 0.854
9 | NCI-H1623 | 0.896 | – | 1.03 | 0.768 | – | – | – | – | – | – | – | – | – | 0.876 | 0.767 | 0.671 | 0.595 | 0.391
10 | NCI-H1792 | – | – | – | – | 0.272 | 0.249 | 0.259 | 0.234 | 0.417 | 0.458 | 0.556 | 0.572 | 0.43 | – | – | – | – | –
11 | NCI-H2342 | 1.14 | 0.943 | 1.05 | 0.942 | – | – | – | – | – | – | – | – | – | 1.14 | 0.95 | 1.05 | 0.83 | 0.648
12 | SW 900 | 1.11 | 0.693 | 0.801 | 0.924 | – | – | – | – | – | – | – | – | – | – | 0.644 | 0.725 | 0.873 | 0.405
